What was measured:
[1] = system: platelet-activating factor (PAF); assay: Platelet aggregation assay (PAF-induced aggregation, human platelet-rich plasma); assay type: cell-based; conditions: PAF-induced aggregation of human platelets, in vitro, read-out: PAF Antagonism (in vitro) IC50
Experimental: Platelet-activating factor (PAF) causes aggregation of platelets by a receptor-mediated mechanism. Therefore, PAF-induced platelet aggregation provides a simple and convenient assay to screen compounds for PAF antagonism. Human blood (50 mL) was collected from healthy male donors in an anticoagulant solution (5 mL) containing sodium citrate (3.8%) and dextrose (2%). Blood was centrifuged at 110×g for 15 min. and the supernatant platelet-rich plasma (PRP) carefully transferred into a polypropylene tube. Platelet-poor-plasma (PPP) was prepared by centrifuging PRP at 12,000×g for 2 min. (Beckman Microfuge B). PRP was used within 3 hr. of drawing the blood. PAF was dissolved in chloroform:methanol (1:1, v/v) at a concentration of 2 mg/mL and stored at -70° C. An aliquot of this solution was transferred to a polypropylene tube and dried under a flow of nitrogen gas. To the dried sample was added Hepes-saline-BSA (BSA=bovine serum albumen) buffer (25 mM Hepes, pH 7.4, […], 0.7 mM MgCl2 and 0.1% BSA) to obtain a 1 mM solution and sonicated for 5 min. in a bath sonicator. This stock solution was further diluted to appropriate concentrations in Hepes-saline-BSA buffer. Collagen (Sigma) and adenosine diphosphate (ADP) (Sigma) were purchased as solutions. Test compounds were initially dissolved in dimethyl sulfoxide (DMSO) at a concentration of 50 mM and then further diluted in Hepes-saline-BSA buffer to achieve appropriate concentrations.
When an aggregating agent such as PAF is added to PRP, platelets aggregate. An aggregometer quantifies this aggregation by measuring and comparing light (infra-red) transmission through PPP and PRP. Aggregation assays were performed using a dual-channel aggregometer (Model 440, Chrono-Log Corp., Havertown, Pa.). PRP (0.45 mL) in aggregometer cuvettes was continually stirred (37° C.). Solutions (50 μL) of test compounds or vehicle were added to the PRP and, after incubation for 2 min., 10-15 μl aliquots of PAF solution were added to achieve a final concentration of 1-5×10^-8 M. In different experiments the aggregatory response was kept within a set limit by varying the concentration of PAF. Incubations were continued until the increase in light transmission reached a maximum (usually 2 min.). This increase in light transmission reflecting platlet aggregation is transmitted to a computer by the Chrono-Log model 810 AGGRO/LINK interface. The AGGRO/LINK calculates the slope of transmission change, thus providing the rate of aggregation. Values for inhibition were calculated by comparing rates of aggregation obtained in the absence and the presence of the compound. For each experiment, a standard PAF antagonist such as 8-chloro-6,11-dihydro-11-(1-acetyl-4-piperidylidene)-5H-benzo[5,6]cyclohepta[1,2-b]pyridine was used as a positive control.
Compounds that inhibit PAF-induced aggregation were tested against several other aggregating agents including collagen (0.2 mg/mL) and ADP (2 μM). Compounds showing no activity against these latter agents were considered to be specific PAF antagonists.

PAF = assay: PAF-induced bronchospasm in guinea pigs (in vivo, oral); design: species or system guinea pig; conditions: for effect on the PAF response, compared with the histamine response: both responses at similar doses, in words; for Agonist Bronchospasm (in vivo)-Oral, PAF, Inhibition: 2 hours after dose, PAF 0.4 μg/kg i.v.
Histamine = assay: Histamine-induced bronchospasm in guinea pigs (in vivo, oral); design: species or system guinea pig; conditions: for effect on the histamine response, compared with the PAF response: both responses at similar doses, in words; for Agonist Bronchospasm (in vivo)-Oral, Histamine, Inhibition: 2 hours after dose, histamine 10 ug/kg i.v.

SMILES	IC50 [1] [nM]	effect on the PAF response, compared with the histamine response (PAF)	Agonist Bronchospasm (in vivo)-Oral, PAF, Inhibition (PAF; 5 mg/kg) [%]	effect on the histamine response, compared with the PAF response (Histamine)	Agonist Bronchospasm (in vivo)-Oral, Histamine, Inhibition (Histamine; 3 mg/kg) [%]	Agonist Bronchospasm (in vivo)-Oral, PAF, Inhibition (PAF; 3 mg/kg) [%]	Agonist Bronchospasm (in vivo)-Oral, PAF, Inhibition (PAF; 1 mg/kg) [%]	Agonist Bronchospasm (in vivo)-Oral, Histamine, Inhibition (Histamine; 10 mg/kg) [%]
CC(=O)N1CCC(=C2c3ccc(Cl)cc3CCc3cccnc32)CC1 [Compound 1]	600	there is an effect on both responses at similar doses	49	there is an effect on both responses at similar doses	49	–	–	–
O=C(c1cc[n+]([O-])cc1)N1CCC(=C2c3ccc(Cl)cc3CCc3cccnc32)CC1 [Compound 2]	200	there is an effect on both responses at similar doses	–	there is an effect on both responses at similar doses	37	93	–	–
O=C(c1cc[n+]([O-])cc1)N1CCC(=C2c3ccc(Cl)cc3SCc3cccnc32)CC1 [Compound 3]	40	–	–	–	–	–	91	9
O=C(c1cc[n+]([O-])cc1)N1CCN(C2c3ccc(Cl)cc3OCc3cccnc32)CC1 (stereo not shown) [Compound 4]	200	–	–	–	5	–	68	–
O=C(c1cc[n+]([O-])cc1)N1CCN(C2c3ccc(Cl)cc3SCc3cccnc32)CC1 (stereo not shown) [Compound 5]	300	–	–	–	–	–	38	9
